The record followed here is article PMC12024912, “Druggability Studies of Benzene Sulfonamide Substituted Diarylamide (E3) as a Novel Diuretic” (Biomedicines, 2025).

Series [1] has as its system rat hyponatremia model caused by SIADH. The series can be described thus: Rat hyponatremia model caused by SIADH (dDAVP). It counts as in vivo. The method, then:
The protocol for dDAVP-induced hyponatremia was adapted from a previous study, with tolvaptan chosen as the positive control. Preliminary experiments determined the dose of dDAVP (0.25 ng/h). Under isoflurane anesthesia, a 0.5 μg/mL dDAVP solution was injected subcutaneously using an osmotic minipump (ALZET 2002, Cupertino, CA, USA; 200 μL, low rate of 0.5 μL/h for […]). Rats were housed individually in metabolic cages to collect urine. Before using the pump, they were given 62.5 mL/d 1.0 kcal/mL of liquid food. After pump implantation, the rats received 40 mL of 2.1 kcal/mL of liquid feed daily. The rats were divided into five groups: control group (sham operation), model group (0.5% poloxamer, solvent), 4 mg/kg tolvaptan group, 4 mg/kg E3 group, and 20 mg/kg E3 group. E3 was administered orally every 8 h, while tolvaptan was given intragastrically once daily. At the end of the experiment, the rats were sacrificed.

The subject of the next series is mice. The series can be described thus: Mouse sperm malformation assay. Conditions: mouse, in vivo, po, 2000 mg/kg/day. The method, then: Male mice were randomly divided into three groups: control group (0.5% CMC-Na), E3 2000 mg/kg group, and positive group (50 mg/kg cyclophosphamide (CP), administered via intraperitoneal injection). E3 and the control group were administered once daily by intragastric gavage. All mice received treatment for 5 consecutive days. After the initial dosing period, […], the mice were euthanized, and evaluation of sperm parameters was performed as follows:
Caudal epididymides were dissected into fragments in physiological saline and incubated (37 °C, 5% CO2, 10 min). Spermatozoa were isolated through nylon mesh filtration. Semen parameters were quantified using computer-assisted semen analysis (CASA). Eosin-stained smears (20 μL sperm suspension) were analyzed to examine sperm morphology. […] Sperm shape abnormalities, such as banana, headless, without a hook, amorphous, double-tailed, and fat head, were identified and counted. In addition, the testis was reserved for morphological analysis. The spermatogenesis was graded from 1 to 10 using the Johnsen score.

In the next series the test system is SD rats. The series can be described thus: Diuretic effect of single intragastric administration in rats (metabolic cages). It counts as in vivo, rat. The method, then:
In a single-dose administration experiment, male wild-type (WT) mice, UT-B^-/- mice, UT-A1^-/- mice, or SD rats were adapted in metabolic cages for 3 d. Food and water were provided ad libitum throughout the experiment. Prior to administration, the bladder of each animal was emptied through gentle abdominal massage, and urine was collected from the metabolic cages every 2 h. Compound E3, suspended in 0.5% CMC-Na at an appropriate concentration, was administered intragastric gavage to the mice or rats (0.16, 0.8, 4, or 20 mg/kg). Vehicle control comprised 0.5% (w/v) CMC-Na. Urinary parameters were determined through the following: volume: Gravimetric analysis (1 g/mL density assumption); osmolality: freezing-point osmometry (Micro-osmometer, […] Associates, Norwood, MA, USA); and urea: diacetyl oxime colorimetry (QuantiChrom® kit, Elabscience, Wuhan, China). In long-term (7 d) diuretic activity experiments, male WT mice, UT-B^-/- mice, UT-A1^-/- mice, and SD rats were acclimatized in metabolic cages (Ugo Basile, Comerio, VA, Italy) for 3 d. Food and water were provided ad libitum throughout the experiment. E3 was suspended in 0.5% CMC-Na and administered at a dose of 4 or 20 mg/kg by intragastric gavage. Urine was collected by metabolic cages every 24 h. Body weight was measured daily. At 4 h after the final administration, a blood sample was obtained by heart puncture. Inner medulla and outer medulla tissue homogenates were prepared, and the supernatant after centrifugation was analyzed for solute concentration and osmolality. Urinary osmolality and urea concentration were measured as above. Serum Na^+, K^+, and Cl^- were measured in a clinical chemistry laboratory, while serum creatinine, ALT, and AST were measured through specific reagent kits (NJJC Bio, Nanjing, China).

Setting [2] is: SIADH rats, E3 4 or 20 mg/kg every 8 h, tolvaptan 4 mg/kg once daily, vs model rats.

As to `CC(=O)c1ccc(C(=O)Nc2cccc(NS(=O)(=O)c3ccccc3)c2)o1` [Compound E3, 5-acetyl-N-(3-(phenylsulfonamido)phenyl)furan-2-carboxamide], in series [1] (E3 4 or 20 mg/kg orally every 8 h, tolvaptan 4 mg/kg once daily, vs model), the “hyponatremia in SIADH rats” value is “significantly alleviated”. Besides, in series [1] (setting [2]), the serum osmolality entry is listed as “significantly increased” and the serum sodium concentration result was “significantly increased”. In series [1] (SIADH rats, between experimental groups before and after treatment), the blood urea levels entry is “no significant difference”. In series [1] (SIADH rats, except dilatation of collecting ducts), the “H&E staining of kidney and liver” value is on record as “normal tissue structures”. Moreover, in the series on mice, the “testicular tissue, H&E staining” value is recorded as “no significant differences”. Moreover, in the series with SD rats (single intragastric gavage), the urinary osmolality result is “decreased” and the urinary urea result was “decreased”. Moreover, the urine output result in the series on SD rats (single intragastric gavage 0.16-20 mg/kg, vs vehicle) is “significantly increased”. Also, the “excretion of non-urea solutes” value in the series on SD rats (single intragastric gavage, vs control) is given as “not significantly different”.
